Here are results for two molecules from patent US20260183322A1, “BORON-BASED ENOLASE LIGANDS AND METHODS OF USE FOR TREATMENT OF CANCER” (LOMA LINDA UNIVERSITY, priority 2022, published 2026).

pIC50: −log10 of the molar value.

Assay type in all cases: cell-based
The subject of data set [1] is parental and DR cell lines (PC3 and DU145). Briefly: Cytotoxic activity in parental and DR prostate cancer cell lines. Conditions: for cytotoxic activity (anti-cancer effects): general statement; for cytotoxicity compared with the other compounds of the ten: in vitro cytotoxicity and anti-proliferative data in docetaxel resistant PCa cell lines; for cell viability: parental and DR cell lines (PC3 and DU145). The text has this: Out of the initial ten compounds, two target-to-hit specific ligands were identified, BT-768 and BT-772, from the diazaborine-based pharmacophore group and 2-Chloro substituted acetamide derivatives. BT-768 and BT-772 were selected for further studies based on their in vitro cytotoxicity and anti-proliferative data in docetaxel resistant PCa cell lines (see FIG. 3A and FIG. 3B, and FIG. 4A and FIG. 4B). […] The boron-based ligands BT-768 and BT-772 cytotoxic activity in parental and DR cell lines (PC3 and DU145) were then measured.
(§1) FIG. 3A and FIG. 3B, for example, are graphical representations of 3-(4,5-dimethylthiazol-2-yl)-2,5-diphenyl-2H-tetrazolium bromide MTT assay-based dose response curve for the ligand BT-772. FIG. 3A and FIG. 3B represent the average of three independent experiments in triplicates normalized to untreated control assays. As shown in FIG. 3A and FIG. 3B, cell viability was measured by MTT assay. In FIG. 3A, PC3 and PC3-DR cells were treated with increasing concentrations of BT-772 for twenty-four hours.
(§2) In FIG. 3B, DU145 and DU145-DR cells were treated with increasing concentrations of BT-772 for twenty-four hours.

The test system of data set [2] is PC3 prostate cancer cell line. Briefly: MTT assay cell viability, PC3. Conditions: Homo sapiens, PC-3, PC3 cells, twenty-four hours, read-out: IC50 (drug concentration causing 50% inhibition), cytotoxic activity.
Text: (§3) FIG. 3A is a graphical representation of 3-(4,5-dimethylthiazol-2-yl)-2,5-diphenyl-2H-tetrazolium bromide (MTT) assay-based dose response curve for the ligand BT-772 in the PC3 prostate cancer cell line and its taxane resistant variant PC3-DR, in accordance with an embodiment of the disclosure.
as §1
(Tetrazolium dyes change colour on reduction, which living cells bring about.)

Data set [3] relates to PC3-DR (taxane resistant variant of PC3). Briefly: MTT assay cell viability, PC3-DR. Conditions: PC3-DR cells, twenty-four hours, read-out: IC50 (drug concentration causing 50% inhibition), cytotoxic activity.
Text: as §3, §1

Data set [4] relates to DU145 prostate cancer cell line. Nature of the data set: MTT assay cell viability, DU145. Conditions: Homo sapiens, DU-145, DU145 cells, twenty-four hours, read-out: IC50, cytotoxic activity.
Text: (§4) FIG. 3B is a graphical representation of 3-(4,5-dimethylthiazol-2-yl)-2,5-diphenyl-2H-tetrazolium bromide MTT assay-based dose response curve for the ligand BT-772 in the DU145 prostate cancer cell line and its taxane resistant variant DU145-DR, in accordance with an embodiment of the disclosure.
as §1, §2

Data set [5] concerns DU145-DR (taxane resistant variant of DU145). Nature of the data set: MTT assay cell viability, DU145-DR. Conditions: Homo sapiens, DU-145, DU145-DR cells, twenty-four hours, read-out: IC50, cytotoxic activity.
Text: as §4, §1, §2

The subject of the next data set is PC3-DR cells. Nature of the data set: Clonogenic assay, PC3-DR. Conditions: 6-well plates, 10 days. On the procedure: FIG. 4A is a photographic image of a clonogenic assay-based dose response for the ligand BT-772 in the PC3 and PC3-DR cell lines, in accordance with an embodiment of the disclosure.
(§5) FIG. 4A and FIG. 4B, for example, show images of clonogenic assays, used primarily to determine cancer cell colony formation capacity and proliferation. In FIG. 4A, PC3 and PC3-DR cells were grown at low density in 6-well plates and allowed to form clones for 10 days.

For the next data set, the system named is DU145 cells. Nature of the data set: Clonogenic assay, DU145. Conditions: DU145 cells growing as colonies. On the procedure: (§6) FIG. 4B is a photographic image of a clonogenic assay-based dose response for the ligand BT-772 in the DU145 and DU145-DR cell lines, in accordance with an embodiment of the disclosure.
as §5
(§7) In FIG. 4B, DU145 and DU145-DR cells growing as colonies were treated with low micromolar concentrations of BT-772 and clonogenicity was noticeable inhibited at concentrations above 3 μM in DU145 cells and at concentrations above 1 μM in DU145-DR cells.

The subject of a further data set is DU145-DR cells. Briefly: Clonogenic assay, DU145-DR. Conditions: DU145-DR cells growing as colonies. On the procedure: as §6, §5, §7

Regarding `N#Cc1ccc(B2Nc3ccccc3-c3nc4ccccc4n32)s1` [BT-768, 5-(benzo[e]benzo[4,5]imidazo[1,-c][1,3,2]diazaborinin-6 (5H)-yl)thiopene-2-carbonitrile], in data set [1], the “cytotoxic activity (anti-cancer effects)” value is “low μM cytotoxic activity”, the “cytotoxicity compared with the other compounds of the ten” value is listed as “higher cytotoxic than the other eight compounds” and the cell viability entry is “dose-dependent reduction in cell viability”.

Turning to `Cc1ccc(CN(C(=O)CCl)c2cccc(B3OC(C)(C)C(C)(C)O3)c2)cc1` [BT-772, 2-chloro-N-(4-methylbenzyl)-N-(3-(4,4,5,5-tetramethyl-1,3,2-dioxaborolan-2-yl)phenyl) acetamide], the pIC50 in data set [2], in data set [3], in data set [4] and in data set [5] was 5.00 to 5.30 throughout. Moreover, the figures for the “concentration above which clonogenicity was noticeably inhibited” value in the data set on PC3-DR cells, in the data set with DU145 cells and with DU145-DR cells were “above 3 M”, “above 3 μM” and “above 1 μM”, respectively. The “cytotoxic activity (anti-cancer effects)” value in data set [1] was “low μM cytotoxic activity”. In data set [1], the “cytotoxicity compared with the other compounds of the ten” value is listed as “higher cytotoxic than the other eight compounds”. Also, the cell viability entry in data set [1] is reported as “dose-dependent reduction in cell viability”.
